Where a SMILES comes first, the peptide text is derived from it. The star is where a group is joined. Boc = CC(C)(C)OC(=O)*

For orientation: IC50 means the concentration that gives 50% inhibition. Low readings indicate greater potency in that assay, high ones weaker potency in that assay.

The first experiment relates to Nucleic Acid. Nature of the experiment: In vitro ability to selectively inhibit the translation of rhinoviral RNA in translation assay. It is filed as functional. The settings on record: Human rhinovirus sp.
`CC(C)C[C@H](NC(=O)[C@@H](NC(=O)OC(C)(C)C)C(C)C)C(=O)N[C@@H](Cc1ccccc1)C(=O)N[C@H](C=O)CCC(N)=O` (Boc-VLFQ-aldehyde) yielded an Activity of 10 µM. The same measure, in the same setting: the value for `CC(C)CC(=O)N[C@@H](Cc1ccccc1)C(=O)N[C@H](C=O)CCC(N)=O` was greater than 200 µM. As for `CC(=O)N[C@@H](CC(C)C)C(=O)N[C@@H](Cc1ccccc1)C(=O)N[C@H](C=O)CCC(N)=O` (Ac-Leu-Phe-Gln-aldehyde), the Activity was found to be 170 µM. Same read-out and setting: the same measure for `CC(C)C[C@H](NC(=O)[C@@H](NC(=O)OC(C)(C)C)C(C)C)C(=O)N[C@@H](Cc1ccccc1)C(=O)NCC=O` (Boc-VLFG-aldehyde): 180 µM.

A further experiment concerns the target T1, Human rhinovirus A protease (Human rhinovirus sp., UniProt Q4U254).
T1 sequence (Q4U254 whole entry): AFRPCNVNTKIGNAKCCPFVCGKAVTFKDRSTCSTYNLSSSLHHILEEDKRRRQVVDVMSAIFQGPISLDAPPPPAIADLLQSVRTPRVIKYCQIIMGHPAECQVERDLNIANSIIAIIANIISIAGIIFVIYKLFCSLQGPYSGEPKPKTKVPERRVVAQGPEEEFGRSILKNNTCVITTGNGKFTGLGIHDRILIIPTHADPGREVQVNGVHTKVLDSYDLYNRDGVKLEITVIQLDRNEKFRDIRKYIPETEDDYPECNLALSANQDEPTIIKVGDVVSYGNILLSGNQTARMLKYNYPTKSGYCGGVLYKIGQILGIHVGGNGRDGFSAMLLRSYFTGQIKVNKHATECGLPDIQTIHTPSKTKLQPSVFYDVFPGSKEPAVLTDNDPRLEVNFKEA
In words: Inhibitory activity against human rhinovirus-14 Protease 3C. The arrangement: species or system rhinovirus B14.
Conditions: not given
Compound `CC(C)C[C@H](NC(=O)[C@@H](NC(=O)OC(C)(C)C)C(C)C)C(=O)N[C@@H](Cc1ccccc1)C(=O)N[C@H](C=O)CCC(N)=O` (Boc-VLFQ-aldehyde) yielded an IC50 of 0.6 µM. Same read-out and setting: the same measure for `CC(C)C[C@H](NC(=O)OC(C)(C)C)C(=O)N[C@@H](Cc1ccccc1)C(=O)N[C@H](C=O)CCC(N)=O` (Boc-Leu-Phe-Gln-aldehyde): greater than 80 µM. On the same count and under the same terms, the value for `CC(C)CC(=O)N[C@@H](Cc1ccccc1)C(=O)N[C@H](C=O)CCC(N)=O` was greater than 80 µM.

`CC(C)(C)OC(=O)N[C@@H](Cc1ccccc1)C(=O)N[C@H](C=O)CCC(N)=O` returned an IC50 greater than 80 µM. Same read-out and setting: the value for `CC(=O)N[C@@H](CC(C)C)C(=O)N[C@@H](Cc1ccccc1)C(=O)N[C@H](C=O)CCC(N)=O` (Ac-Leu-Phe-Gln-aldehyde) was 2.7 µM; that for `CC(C)C[C@H](N)C(=O)N[C@@H](Cc1ccccc1)C(=O)N[C@H](C=O)CCC(N)=O` (H-Leu-Phe-Gln-aldehyde) was 1 µM. The compound `CC(C)C[C@H](NC(=O)[C@@H](NC(=O)OC(C)(C)C)C(C)C)C(=O)N[C@@H](Cc1ccccc1)C(=O)NCC=O` (Boc-VLFG-aldehyde) had an IC50 of 10 µM.

`CC(=O)NCC(=O)N[C@@H](Cc1ccccc1)C(=O)N[C@H](C=O)CCC(N)=O` (Ac-Gly-Phe-Gln-aldehyde) displayed an IC50 of 16 µM.

Another experiment has as its system rhinovirus B14. Nature of the experiment: Inhibitory activity against human rhinovirus-14 in cell culture. It is filed as functional. The settings on record: Rhinovirus B; read-out: ED50 (the source's name).
For the compound `CC(C)C[C@H](NC(=O)[C@@H](NC(=O)OC(C)(C)C)C(C)C)C(=O)N[C@@H](Cc1ccccc1)C(=O)N[C@H](C=O)CCC(N)=O` (Boc-VLFQ-aldehyde), the EC50 came to 500 µM.

Another experiment concerns Nucleic Acid. In words: In vitro ability to selectively inhibit the translation of rhinoviral RNA in translation assay; Toxic. The class given is functional. Conditions: Human rhinovirus sp.
As to `CC(C)C[C@H](N)C(=O)N[C@@H](Cc1ccccc1)C(=O)N[C@H](C=O)CCC(N)=O` (H-Leu-Phe-Gln-aldehyde), the Activity result is “Toxic”.
